Measured values from US10227331B2 (priority 2015, dated 2019).
Where two headings read alike, the source gives them in different places.

Key:
[1] = target: IMP-1 (Serratia marcescens, UniProt P52699); assay: biochemical; assay type: biochemical
How it was run: (§1)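 Semi-log dose-response curves, fitted with a 4-parameter model, gave IC50s. The underlying signal was CCF2-FA fluorescence following 2 hours at 25° C with enzyme, substrate and inhibitor combined.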

[2] = target: NDM-1 (Klebsiella pneumoniae, UniProt C7C422); assay: biochemical; assay type: biochemical; details: CCF2-FA substrate, 2 hours at 25° C; read-out: NDM-1 IC50
Chain of NDM-1 (C7C422 whole entry, looked up, species assumed): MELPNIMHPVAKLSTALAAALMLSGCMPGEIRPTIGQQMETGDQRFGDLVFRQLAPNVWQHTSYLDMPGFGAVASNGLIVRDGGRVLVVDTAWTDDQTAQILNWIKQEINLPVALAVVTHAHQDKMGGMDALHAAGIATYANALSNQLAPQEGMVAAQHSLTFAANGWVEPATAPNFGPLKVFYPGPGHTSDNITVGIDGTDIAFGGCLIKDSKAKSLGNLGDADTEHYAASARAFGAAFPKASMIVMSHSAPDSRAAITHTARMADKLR
How it was run: as §1

[3] = target: VIM-1 (Pseudomonas aeruginosa (strain ATCC 15692 / DSM 22644 / CIP 104116 / JCM 14847 / LMG 12228 / 1C / PRS 101 / PAO1), UniProt A0A0F7KYQ8); assay: biochemical; details: CCF2-FA substrate, 2 hours at 25° C
How it was run: as §1

[4] = system: Escherichia coli expressing NDM-1 (CLB30005, CLB30016); assay type: cell-based; details: with imipenem 1 μg/ml, 95% inhibition of bacterial growth
How it was run: (§2)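 Restoration of imipenem susceptibility (1 μg/ml imipenem) was judged by absorbance after 22–24 h at 35° C. Test compound was added to bacteria suspended 1:100 in 1.1× CAMHB from overnight blood-agar cultures.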

[5] = system: Klebsiella pneumoniae expressing VIM-1 (IHMA599644); assay type: cell-based; details: with imipenem 1 μg/ml, 95% inhibition of bacterial growth
How it was run: as §2

[6] = system: Serratia marcescens expressing IMP-1 (CL5741); assay type: cell-based; details: with imipenem 1 μg/ml, 95% inhibition of bacterial growth
How it was run: as §2

[7] = system: P. aeruginosa expressing IMP-1, efflux+ (MB9798); assay type: cell-based, Pseudomonas aeruginosa; details: for P. aeruginosa expressing IMP-1, efflux+ (MB9798) MITC95: imipenem at 2 μg/mL, in the presence of a class A, C, D serine β-lactamase inhibitor closely related to relebactam; for Efflux ratio: ratio MITC95 PA_9798/MITC95 PA_9799
Source text: (§3) The strain background is Pseudomonas aeruginosa PAO1.

[8] = system: P. aeruginosa expressing IMP-1, efflux− (MB9799); assay: Efflux: concentration of MBL inhibitor which restores susceptibility to imipenem; assay type: cell-based, Pseudomonas aeruginosa; details: imipenem at 2 μg/mL, in the presence of a class A, C, D serine β-lactamase inhibitor closely related to relebactam
Source text: as §3

[9] = CCF2-FA substrate, 2 hours at 25° C, read-out: IMP-1 IC50

Chain of IMP-1 (P52699 whole entry, looked up, species assumed): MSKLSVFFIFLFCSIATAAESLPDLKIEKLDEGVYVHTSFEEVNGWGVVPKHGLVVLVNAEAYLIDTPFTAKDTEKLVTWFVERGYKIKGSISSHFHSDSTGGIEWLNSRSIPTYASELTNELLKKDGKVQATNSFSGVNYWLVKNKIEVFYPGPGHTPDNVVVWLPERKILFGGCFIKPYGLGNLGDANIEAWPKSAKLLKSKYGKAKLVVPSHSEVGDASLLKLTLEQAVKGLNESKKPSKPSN

Row | Compound | IC50 [1] [nM] | IC50 [2] [nM] | IC50 [3] [nM] | Escherichia coli expressing NDM-1 (CLB30016) MITC95 [4] [µM] | Klebsiella pneumoniae expressing VIM-1 (IHMA599644) MITC95 [5] [µM] | Serratia marcescens expressing IMP-1 (CL5741) MITC95 [6] [µM] | P. aeruginosa expressing IMP-1, efflux+ (MB9798) MITC95 [7] [µM] | Efflux ratio [7] | P. aeruginosa expressing IMP-1, efflux− (MB9799) MITC95 [8] [µM] | IC50 [1, 9] [nM] | Escherichia coli MITC95 ([4]; NDM-1 (CLB30016)) [µM] | Klebsiella pneumoniae MITC95 ([5]; VIM-1 (IHMA599644)) [µM] | Serratia marcescens MITC95 ([6]; IMP-1 (CL5741)) [µM]
1 | Nc1nc2cccc(-c3ccc(S(=O)(=O)C4CNC4)c(S(N)(=O)=O)c3-c3nn[nH]n3)c2o1 [Example 28, 3-(2-aminobenzo[d]oxazol-7-yl)-6-(azetidin-3-ylsulfonyl)-2-(2H-tetrazol-5-yl)benzenesulfonamide] | 1.33 | 0.0489 | 0.173 | 1.563 | 3.125 | 3.125 | 6.25 | 4.00 | 1.563 |  |  |  | 
2 | NCCS(=O)(=O)c1ccc(-c2cccc3[nH]c(C(=O)O)nc23)c(-c2nn[nH]n2)c1S(N)(=O)=O [Example 91, 4-(4-((2-aminoethyl)sulfonyl)-3-sulfamoyl-2-(2H-tetrazol-5-yl)phenyl)-1H-benzo[d]imidazole-2-carboxylic Acid] |  | 0.189 | 0.239 | 1.172 | 2.344 | 1.563 | 0.7813 | 1.00 | 0.7813 | 0.386 |  |  | 
3 | NCCN1CCC(S(=O)(=O)c2ccc(-c3cccc4nc(N)[nH]c34)c(-c3nn[nH]n3)c2S(N)(=O)=O)CC1 [Example 48, 3-(2-amino-3H-benzo[d]imidazol-4-yl)-6-(1-(2-aminoethyl)piperidin-4-ylsulfonyl)-2-(2H-tetrazol-5-yl)benzenesulfonamide] |  | 0.392 | 0.404 | 1.563 | 3.125 | 3.125 | 3.125 | 2.00 | 1.563 | 2.3 |  |  | 
4 | NS(=O)(=O)c1c(S(=O)(=O)C2CNC2)ccc(-c2ccc3ccncc3c2)c1-c1nnn[nH]1.O=C(O)C(F)(F)F [Example 131, 3-((4-(isoquinolin-7-yl)-2-sulfamoyl-3-(1H-tetrazol-5-yl)phenyl)sulfonyl)azetidin-1-ium 2,2,2-trifluoroacetate] |  | 0.345 | 0.13 | 0.7813 | 3.125 | 3.125 | 25 | 15.99 | 1.563 | 0.51 |  |  | 
5 | NCCS(=O)(=O)c1ccc(-c2cncc3ccccc23)c(-c2nnn[nH]2)c1S(N)(=O)=O.O=C(O)C(F)(F)F [Example 148, 2-((4-(isoquinolin-4-yl)-2-sulfamoyl-3-(1H-tetrazol-5-yl)phenyl)sulfonyl)ethanaminium 2,2,2-trifluoroacetate] |  | 0.608 | 0.434 | 3.125 | 3.125 | 3.125 | 3.125 | 2.00 | 1.563 | 0.983 |  |  | 
6 | NC[C@@H](CO)S(=O)(=O)c1ccc(-c2cccc3nc(N)[nH]c23)c(-c2nn[nH]n2)c1S(N)(=O)=O [Example 358, (S)-3-(2-amino-1H-benzo[d]imidazol-7-yl)-6-((1-amino-3-hydroxypropan-2-yl)sulfonyl)-2-(1H-tetrazol-5-yl) benzenesulfonamide] |  | 0.221 | 0.789 |  |  |  | 0.7813 | 1.00 | 0.7813 | 1.15 | 0.7813 | 1.563 | 0.7813
7 | COc1ccc(-c2ccc(S(=O)(=O)CCN)c(S(N)(=O)=O)c2-c2nnn[nH]2)c2[nH]c(C(F)(F)F)nc12.O=C(O)C(F)(F)F [Example 164, 2-((4-(4-methoxy-2-(trifluoromethyl)-1H-benzo[d]imidazol-7-yl)-2-sulfamoyl-3-(1H-tetrazol-5-yl)phenyl)sulfonyl)ethanaminium 2,2,2-trifluoroacetate] |  | 0.147 | 0.143 | 6.25 | 6.25 | 3.125 | 6.25 | 2.00 | 3.125 | 0.233 |  |  | 
8 | N#Cc1cccc(-c2ccc(S(=O)(=O)C3CNC3)c(S(N)(=O)=O)c2-c2nn[nH]n2)c1N [Example 196, 2′-amino-4-(azetidin-3-ylsulfonyl)-3′-cyano-2-(2H-tetrazol-5-yl)-[1,1′-biphenyl]-3-sulfonamide] |  | 0.315 | 0.233 | 0.7813 | 1.563 | 1.563 | 12.5 | 16.00 | 0.7813 | 1.54 |  |  | 
9 | NCCS(=O)(=O)c1ccc(-c2ccnc3ccccc23)c(-c2nnn[nH]2)c1S(N)(=O)=O.O=C(O)C(F)(F)F [Example 138, 2-((4-(quinolin-4-yl)-2-sulfamoyl-3-(1H-tetrazol-5-yl)phenyl)sulfonyl)ethanaminium 2,2,2-trifluoroacetate] |  | 0.8 | 0.41 | 1.563 | 6.25 | 3.125 | 6.25 | 4.00 | 1.563 | 1.28 |  |  | 
